After the bases stand the sugars from the 5' end (letter, count) and the backbone: PS all phosphorothioate, else s phosphorothioate and o phosphodiester by linkage. Methylation of C is not given here. e = 2'-O-(2-methoxyethyl) (MOE); k = constrained ethyl (cEt); d = 2'-deoxy (DNA); m = 2'-O-methyl
Biological target: HSD17B13
Details: ASO, HepaRG

Sequence | target mRNA inhibition (1 µM) [%] | other results
ATAAGGCCGATTCATG (sugars k3 d10 k3, PS) | 38 | –
ATAAGTAGTCTGCCTG (sugars k3 d10 k3, PS) | 43 | –
ATACGATGGAACAAAA (sugars k3 d10 k3, PS) | 27 | –
ATACTGTCCCAGCATT (sugars k3 d10 k3, PS) | 32 | –
ATACTTACCAATATGG (sugars k3 d10 k3, PS) | 0 | –
ATAGAGTTGCACCGTT (sugars k3 d1 m1 d8 k3, PS) | 59 | –
ATAGAGTTGCACCGTT (sugars k3 d9 k3 e1, PS) | 71 | –
ATAGAGTTGCACCGTT (sugars k3 d10 k3, PS) | 57 | –
ATAGCAAGCCAACAGA (sugars k3 d10 k3, PS) | 37 | –
ATAGCCAGTACAGTTC (sugars k3 d10 k3, PS) | 65 | –
ATATACATCCAAGTAA (sugars k3 d10 k3, PS) | 18 | –
ATCAAATGTATGTGCT (sugars k3 d10 k3, PS) | 73 | –
ATCAAGACATTCTAGC (sugars k3 d9 k3 e1, PS) | 52 | –
ATCAAGACATTCTAGC (sugars k4 m1 d8 k3, PS) | 37 | –
ATCCAGATCTGCCCTA (sugars k3 d10 k3, PS) | 39 | –
ATCCATTCTATGCAAG (sugars k3 d10 k3, PS) | 46 | –
ATCCCGTTCTTGCCCA (sugars k3 d10 k3, PS) | 30 | –
ATCCTATATACATCCA (sugars k3 d10 k3, PS) | 76 | target mRNA inhibition (0.02 µM): 3%; target mRNA inhibition (0.078 µM): 8%; target mRNA inhibition (0.313 µM): 36%; target mRNA inhibition (1.25 µM): 72%; target mRNA inhibition (5 µM): 92%
ATCCTGTAAACACTTC (sugars k3 d10 k3, PS) | 79 | target mRNA inhibition (0.02 µM): 11%; target mRNA inhibition (0.078 µM): 13%; target mRNA inhibition (0.313 µM): 27%; target mRNA inhibition (1.25 µM): 66%; target mRNA inhibition (5 µM): 87%
ATCCUATATACATCCA (sugars k3 d1 m1 d8 k3, PS) | 64 | –
ATCTACATGGATCCAA (sugars k3 d10 k3, PS) | 12 | –
ATCTAGAACACTTGCC (sugars k3 d10 k3, PS) | 27 | –
ATCTATCAGACTTCTT (sugars k3 d9 k3 e1, PS) | 51 | –
ATCTCTGGGACCAAGG (sugars k3 d1 m1 d8 k3, PS) | 52 | –

Sequence | target mRNA inhibition (1 µM) [%] | other results
ATCTTAAGAGAAGGTG (sugars k3 d10 k3, PS) | 43 | –
ATCTTAAGATACCCAG (sugars k3 d9 k3 e1, PS) | 71 | –
ATCTTATAAGACTATA (sugars k3 d9 k3 e1, PS) | 53 | –
ATCTTATAAGACTATA (sugars k3 d10 k3, PS) | 32 | –
ATCTTATAAGACTATA (sugars kkdddddddddkekek, PS) | 30 | –
ATGAAGTTAGTATAGT (sugars k3 d1 m1 d8 k3, PS) | 38 | –
ATGAAGTTAGTATAGT (sugars k3 d9 k3 e1, PS) | 61 | –
ATGAGAACAATCTCCC (sugars k3 d10 k3, PS) | 65 | target mRNA inhibition (0.02 µM): 0%; target mRNA inhibition (0.078 µM): 9%; target mRNA inhibition (0.313 µM): 40%; target mRNA inhibition (1.25 µM): 64%; target mRNA inhibition (5 µM): 78%
ATGAGATTACCCCTGG (sugars k3 d10 k3, PS) | 62 | –
ATGAGGTTTTGATACC (sugars k3 d9 k3 e1, PS) | 20 | –
ATGCAAGATTTACTTC (sugars k3 d10 k3, PS) | 38 | –
ATGGCTACAGATTGGA (sugars k3 d10 k3, PS) | 72 | –
ATGGGATGAGGTAAGG (sugars k3 d10 k3, PS) | 46 | –
ATGGTGATCAGAAGCA (sugars k3 d10 k3, PS) | 85 | target mRNA inhibition (0.02 µM): 0%; target mRNA inhibition (0.078 µM): 28%; target mRNA inhibition (0.313 µM): 46%; target mRNA inhibition (1.25 µM): 80%; target mRNA inhibition (5 µM): 81%
ATGTAAAGTTTGTTAG (sugars k3 d10 k3, PS) | 12 | –
ATGTAGTGGGAGTCGG (sugars k3 d10 k3, PS) | 72 | –
ATGTATCTTATAAGAC (sugars k3 d9 k3 e1, PS) | 24 | –
ATGTCATAAAAATCGC (sugars k3 d10 k3, PS) | 53 | –
ATGTTAGGACCCAGTC (sugars k3 d10 k3, PS) | 60 | –
ATGTTGACCTCAAATG (sugars k3 d10 k3, PS) | 0 | –
ATGTTTATGTAAGCAC (sugars kkdddddddddkekek, PS) | 61 | –
ATTAAGACAGTTGAGT (sugars k3 d10 k3, PS) | 34 | –
ATTAAGATGTCCAGGC (sugars k3 d10 k3, PS) | 31 | –
ATTAAGCTTAGTATAT (sugars k3 d10 k3, PS) | 10 | –

Sequence | target mRNA inhibition (1 µM) [%] | other results
ATTACTTCTGATGTCC (sugars k3 d10 k3, PS) | 65 | –
ATTAGATGGTAAGGAG (sugars k3 d10 k3, PS) | 4 | –
ATTATTCACCACGATT (sugars k3 d10 k3, PS) | 29 | –
ATTCACATATGTGAAG (sugars k3 d10 k3, PS) | 0 | –
ATTCTAAACTAGTGGT (sugars k3 d10 k3, PS) | 39 | –
ATTCTGTGTTCTTGTT (sugars k3 d10 k3, PS) | 67 | –
ATTCUGTGGCATGGCT (sugars k3 d1 m1 d8 k3, PS) | 59 | –
ATTGAGATGACAGTGG (sugars k3 d10 k3, PS) | 70 | target mRNA inhibition (0.02 µM): 21%; target mRNA inhibition (0.078 µM): 40%; target mRNA inhibition (0.313 µM): 64%; target mRNA inhibition (1.25 µM): 77%; target mRNA inhibition (5 µM): 91%
ATTGCATAAGAGCCAA (sugars k3 d10 k3, PS) | 67 | –
ATTGTCTAAACATCTC (sugars kkdddddddddkekek, PS) | 62 | –
ATTGUCTAAACATCTC (sugars k3 d1 m1 d8 k3, PS) | 73 | –
ATTTAGCATTGCCTGT (sugars k3 d10 k3, PS) | 10 | –
CAAAAGACTTTGAGAC (sugars k3 d10 k3, PS) | 22 | –
CAAAAGACTTTGAGAC (sugars kkdddddddddkekek, PS) | 32 | –
CAAAATGGTGGCGAGG (sugars k3 d10 k3, PS) | 10 | –
CAAAGATCTGGCCAGT (sugars k3 d10 k3, PS) | 1 | –
CAAATTTGCTGGAACT (sugars k3 d10 k3, PS) | 39 | –
CAACCAAACTTCCAGC (sugars k3 d10 k3, PS) | 72 | –
CAAGACAGACTGTTGA (sugars k3 d10 k3, PS) | 39 | –
CAAGAGGATAGTCCAT (sugars k3 d10 k3, PS) | 58 | –
CAAGATTAGTCTTGAT (sugars k3 d10 k3, PS) | 27 | –
CAAGGAGTACTTCACA (sugars k3 d10 k3, PS) | 66 | –
CAAGGAGTATGACAAC (sugars k3 d10 k3, PS) | 6 | –
